According to patent US20140309109A1, “N-Thio-anthranilamide compounds and their use as pesticides” (BASF SE, priority 2011, published 2014):

Key:
Type in all cases: in vivo
[1] = test system: Orchid Thrips (Dichromothrips corbetti); test: Orchid thrips floral-immersion test; settings: 72 hours after treatment, adult thrips on dipped orchid flowers, read-out: mortality in comparison with untreated controls
Experimental: B.3 Orchid Thrips (Dichromothrips corbetti)
Dichromothrips corbetti adults used for bioassay were obtained from a colony maintained continuously under laboratory conditions. For testing purposes, the test compound is diluted in a 1:1 mixture of acetone:water (vol:vol), plus 0.01% vol/vol Alkamuls® EL 620 surfactant.
Thrips potency of each compound was evaluated by using a floral-immersion technique. Plastic petri dishes were used as test arenas. All petals of individual, intact orchid flowers were dipped into treatment solution and allowed to dry. Treated flowers were placed into individual petri dishes along with about 20 adult thrips. The petri dishes were then covered with lids. All test arenas were held under continuous light and a temperature of about 28° C. for duration of the assay. After 3 days, the numbers of live thrips were counted on each flower, and along inner walls of each petri dish. The percent mortality was recorded 72 hours after treatment.

[2] = test system: Vetch Aphid (Megoura viciae); test: Vetch aphid broad bean leaf disk microtiter test; settings: foliar, 120 h, 5 days, adult aphids on sprayed broad bean leaf disks, read-out: mortality in comparison with untreated controls
Experimental: B.6 Vetch Aphid (Megoura viciae)
For evaluating control of vetch aphid (Megoura viciae) through contact or systemic means the test unit consisted of 24-well-microtiter plates containing broad bean leaf disks.
The compounds were formulated using a solution containing 75% v/v water and 25% v/v DMSO. Different concentrations of formulated compounds were sprayed onto the leaf disks at 2.5 μl, using a custom built micro atomizer, at two replications.
After application, the leaf disks were air-dried and 5-8 adult aphids placed on the leaf disks inside the microtiter plate wells. The aphids were then allowed to suck on the treated leaf disks and incubated at about 23±1° C. and about 50±5% relative humidity for 5 days. Aphid mortality and fecundity was then visually assessed.

[3] = test system: Colorado Potato Beetle (Leptinotarsa decemlineata); test: Colorado potato beetle eggplant foliage spray test; settings: foliar, 96 h, 4 days after treatment, larvae on sprayed eggplant foliage, read-out: mortality in comparison with untreated controls
Experimental: B.9 Colorado Potato Beetle (Leptinotarsa decemlineata)
(§1) The active compounds were formulated in cyclohexanone as a 10,000 ppm solution supplied in tubes. The tubes were inserted into an automated electrostatic sprayer equipped with an atomizing nozzle and they served as stock solutions for which lower dilutions were made in 50% acetone:50% water (v/v). A nonionic surfactant (Kinetic®) was included in the solution at a volume of 0.01% (v/v).
Eggplants were grown 2 plants to a pot and were selected for treatment at the 1st true leaf stage. Test solutions were sprayed onto the foliage by an automated electrostatic plant sprayer equipped with an atomizing spray nozzle. The plants were dried in the sprayer fume hood and then removed from the sprayer. The treated foliage was then cut and removed from the pot and placed in a Petri dish lined with moistened filter pa-per. Five beetle larvae were introduced into each Petri dish and the dish was covered by a Petri dish lid. Petri dishes were maintained in a growth room at about 25° C. and about 20-40% relative humidity for 4 days, avoiding direct exposure to fluorescent light (24 hour photoperiod) to prevent trapping of heat inside the dishes. Mortality and reduced feeding were assessed 4 days after treatment, compared to untreated control plants.

[4] = test system: Boll Weevil (Anthonomus grandis); test: Boll weevil insect diet microtiter test; settings: 120 h, 5 days, eggs on sprayed insect diet, read-out: mortality (egg and larval) in comparison with untreated controls
Experimental: B.8 Boll Weevil (Anthonomus grandis)
For evaluating control of boll weevil (Anthonomus grandis) the test unit consisted of 24-well-microtiter plates containing an insect diet and 20-30 A. grandis eggs.
The compounds were formulated using a solution containing 75% v/v water and 25% v/v DMSO. Different concentrations of formulated compounds were sprayed onto the insect diet at 20 μl, using a custom built micro atomizer, at two replications.
After application, microtiter plates were incubated at about 23±1° C. and about 50±5% relative humidity for 5 days. Egg and larval mortality was then visually assessed.

[5] = test system: Diamond Back Moth (Plutella xylostella); test: Diamond back moth cabbage leaf dip test; settings: foliar, 72 hours after treatment, 3rd instar larvae on dipped cabbage leaves, read-out: mortality in comparison with untreated controls
Experimental: B.2 Diamond Back Moth (Plutella xylostella)
The active compound is dissolved at the desired concentration in a mixture of 1:1 (vol:vol) distilled water:aceteone. Surfactant (Alkamuls® EL 620) is added at a rate of 0.1% (vol/vol).The test solution is prepared at the day of use.
Leaves of cabbage were dipped in test solution and air-dried. Treated leaves were placed in petri dish eslined with moist filter paper and inoculated with ten 3rd instar larvae. Mortality was recorded 72 hours after treatment. Feeding damages were also recorded using a scale of 0-100%.

[6] = test system: Southern Armyworm (Spodoptera eridania); test: Southern armyworm lima bean foliar spray test; settings: 96 h, 4 days after treatment, larvae on sprayed lima bean plants, read-out: mortality in comparison with untreated controls
Experimental: B.5 Southern Armyworm (Spodoptera eridania)
as §1
(§2) Lima bean plants (variety Sieva) were grown 2 plants to a pot and selected for treatment at the 1st true leaf stage. Test solutions were sprayed onto the foliage by an automated electrostatic plant sprayer equipped with an atomizing spray nozzle. The plants were dried in the sprayer fume hood and then removed from the sprayer. Each pot was placed into perforated plastic bags with a zip closure. About 10 to 11 armyworm larvae were placed into the bag and the bags zipped closed. Test plants were maintained in a growth room at about 25° C. and about 20-40% relative humidity for 4 days, avoiding direct exposure to fluorescent light (24 hour photoperiod) to prevent trapping of heat inside the bags. Mortality and reduced feeding were assessed 4 days after treatment, compared to untreated control plants.

[7] = test system: Tobacco Budworm (Heliothis virescens); test: Tobacco budworm I (B.7a) cotton plant spray test; settings: 96 h, 4 days after treatment, larvae on sprayed cotton plants (B.7a), read-out: mortality in comparison with untreated controls
Experimental: B.7a Tobacco Budworm (Heliothis virescens) I
as §1
as §2, with “Cotton” for “Lima bean”, “plants” for “plants (variety Sieva)”, “cotyledon” for “1st true leaf”, “budworm” for “armyworm”

[8] = test system: Cowpea Aphid (Aphis craccivora); test: Cowpea aphid spray test on potted cowpea plants; settings: assessed after 72 hours, sprayed cowpea plants, read-out: mortality in comparison with untreated controls
Experimental: B.1 Cowpea Aphid (Aphis craccivora)
The active compound is dissolved at the desired concentration in a mixture of 1:1 (vol:vol) distilled water:acetone. Surfactant (Alkamuls® EL 620) is added at a rate of 0.1% (vol/vol). The test solution is prepared at the day of use.
Potted cowpea plants were colonized with approximately 50-100 aphids of various stages by manually transferring a leaf tissue cut from infested plant 24 hours before application. Plants were sprayed after the pest population has been recorded. Treated plants are maintained on light carts at about 28° C. Percent mortality was assessed after 72 hours

[9] = test system: Tobacco Budworm (Heliothis virescens); test: Tobacco budworm I (B.7b) cotton plant spray test; settings: 96 h, 4 days after treatment, larvae on sprayed cotton plants (B.7b), read-out: mortality in comparison with untreated controls
Experimental: B.7b Tobacco Budworm (Heliothis virescens) I
as §1
as §2, with “Cotton” for “Lima bean”, “plants” for “plants (variety Sieva)”, “cotyledon” for “1st true leaf”, “budworm” for “armyworm”

CCS(CC1CC1)=NC(=O)c1cc(Cl)cc(C)c1NC(=O)c1cc(C(F)(F)F)nn1-c1ncccc1Cl (stereo not drawn) [Compound 1, 2-(3-chloro-2-pyridyl)-N-[2-methyl-4-chloro-6-[(cyclopropylmethyl-ethyl-λ^4-sulfanylidene)carbamoyl]phenyl]-5-(trifluoromethyl)pyrazole-3-carboxamide]
≥ 75%: mortality at 300 ppm [1] | mortality at 2500 ppm [2] | mortality at 10 ppm [3] | mortality at 2500 ppm [4] | mortality at 300 ppm [5] | mortality at 1 ppm [6] | mortality at 2500 ppm [7] | mortality at 300 ppm [8] | mortality at 10 ppm [9]
